pEC50, pIC50: −log10 of the molar value. Active and inactive are the calls of the source. The rule behind the calls is not given here.
Columns and labels:
Hepatitis C virus [1] = test: Antiviral activity against HCV genotype 1a infected in human HuH7 cells after 3 days by luciferase reporter assay; format: functional, cell-based, Hepacivirus hominis, subtype 1a; conditions: for pEC50: Hepatitis C virus, subtype 1a, Huh-7, 72 h, read-out: EC50
Hepatitis C virus [2] = test: Antiviral activity against HCV genotype 1b infected in human HuH7 cells after 3 days by luciferase reporter assay; format: functional, cell-based, Hepacivirus hominis; conditions: for pEC50: Hepatitis C virus, genotype 1b, Huh-7, 72 h, read-out: EC50
[3] = Inhibition of HCV genotype 1b NS5B replicase expressed in Escherichia coli BL21(DE3) using polyA/biotinylated oligo(dT12) as template/primer in presence of [3H]UTP after 60 mins by SPA assay; set-up: species or system Hepatitis C virus subtype 1b
[4] = Inhibition of HCV genotype 1b NS5B replicase C316N mutant infected in human HuH7 cells assessed as reduction of viral replication after 3 days by luciferase reporter assay; format: cell-based, Hepatitis C virus subtype 1b; conditions: Hepatitis C virus, Huh-7, 72 h
Cytochrome P450 3A4 = Cytochrome P450 3A4 (Homo sapiens, UniProt P08684); test: Inhibition of microsomal CYP3A4 (unknown origin); format: ADME
[5] = Metabolic stability in rat liver microsomes assessed as parent compound remaining after 10 mins; format: ADME, microsome; conditions: read-out: Stability
[6] = Metabolic stability in human liver microsomes assessed as parent compound remaining after 10 mins; format: ADME, microsome; conditions: read-out: Stability
Cytochrome P450 2C8 = molecular target: T1, Cytochrome P450 2C8 (Homo sapiens, UniProt P10632); test: Inhibition of microsomal CYP2C8 (unknown origin); format: ADME
T1 sequence (P10632 whole entry): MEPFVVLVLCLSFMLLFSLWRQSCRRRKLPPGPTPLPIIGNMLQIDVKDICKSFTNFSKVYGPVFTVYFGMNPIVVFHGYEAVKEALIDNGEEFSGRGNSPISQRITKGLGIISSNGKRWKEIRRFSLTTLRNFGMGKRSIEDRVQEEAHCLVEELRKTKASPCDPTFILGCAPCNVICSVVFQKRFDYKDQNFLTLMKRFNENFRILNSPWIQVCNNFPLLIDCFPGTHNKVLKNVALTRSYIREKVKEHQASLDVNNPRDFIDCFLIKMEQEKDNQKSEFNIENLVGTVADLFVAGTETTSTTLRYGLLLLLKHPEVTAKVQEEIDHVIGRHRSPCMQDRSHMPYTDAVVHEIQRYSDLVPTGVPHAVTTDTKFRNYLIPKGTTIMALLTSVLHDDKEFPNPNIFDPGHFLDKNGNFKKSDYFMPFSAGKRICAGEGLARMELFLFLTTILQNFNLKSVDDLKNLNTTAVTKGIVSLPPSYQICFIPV

Hepatitis C virus [7] = test: Antiviral activity against HCV genotype 1b infected in human HuH7 cells co-treated with daclatasvir after 3 days by luciferase reporter assay; format: functional, cell-based; conditions: Hepacivirus hominis
Hepatitis C virus [8] = test: Antiviral activity against HCV genotype 1b infected in human HuH7 cells at >= 10 times antiviral EC50 after 3 days by luciferase reporter assay; format: functional, cell-based; conditions: Hepacivirus hominis
[9] = Half life in rat liver microsomes; format: ADME, microsome
[10] = Half life in monkey liver microsomes; format: ADME, Macaca mulatta, microsome; conditions: rhesus monkey
[11] = Cytotoxicity against human HuH7 cells after 3 days by CellTiter-Blue assay; format: cell-based, Huh-7
[12] = Half life in human liver microsomes; format: ADME, microsome

Sequence of Cytochrome P450 3A4 (P08684 whole entry): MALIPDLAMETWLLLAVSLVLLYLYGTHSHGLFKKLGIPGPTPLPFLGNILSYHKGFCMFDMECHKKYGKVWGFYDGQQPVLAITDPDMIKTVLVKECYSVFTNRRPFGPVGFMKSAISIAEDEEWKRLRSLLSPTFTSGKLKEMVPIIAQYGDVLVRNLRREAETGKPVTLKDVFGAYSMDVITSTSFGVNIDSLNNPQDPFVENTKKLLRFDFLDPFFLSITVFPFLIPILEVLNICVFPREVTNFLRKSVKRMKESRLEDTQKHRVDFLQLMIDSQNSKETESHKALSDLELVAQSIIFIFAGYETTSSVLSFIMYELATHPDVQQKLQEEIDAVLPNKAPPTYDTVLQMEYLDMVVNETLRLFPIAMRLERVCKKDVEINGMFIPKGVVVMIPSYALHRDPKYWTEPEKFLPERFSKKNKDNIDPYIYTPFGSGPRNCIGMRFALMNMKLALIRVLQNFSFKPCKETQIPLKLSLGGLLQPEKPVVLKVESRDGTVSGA

| pEC50 (Hepatitis C virus [1]) | pEC50 (Hepatitis C virus [2]) | pIC50 [3] | SMILES | pEC50 [4] | also measured |
| --- | --- | --- | --- | --- | --- |
| 6.62 | 7.74 | 7.39 | CNC(=O)c1c(-c2ccc(F)cc2)oc2ccc(-c3cccc(C(=O)NC(C)(C)C)c3)cc12 | – | – |
| 5.85 | 7.12 | 6.92 | CNC(=O)c1c(-c2ccc(F)cc2)oc2ccc(-c3cccc(C(=O)N(C)C(C)(C)C)c3)cc12 | – | – |
| 6.20 | 7.01 | 6.72 | CNC(=O)c1c(-c2ccc(F)cc2)oc2ccc(-c3cccc(C(=O)NC(C)C)c3)cc12 | – | – |
| – | – | < 4.30 | CNC(=O)c1c(-c2ccc(F)cc2)oc2ccc(-c3ccccc3C(=O)O)cc12 | – | – |
| < 4.96 | 4.85 | 4.68 | CNC(=O)c1c(-c2ccc(F)cc2)oc2ccc(OC(C)C)cc12 | – | – |
| 5.74 | 7.17 | 7.04 | CNC(=O)c1c(-c2ccc(F)cc2)oc2ccc(-c3cccc(C(=O)NCc4ccccc4)c3)cc12 | – | – |
| – | < 5.43 | 5.24 | CNC(=O)c1c(-c2ccc(F)cc2)oc2ccc(-c3cccc(C(N)=O)c3)cc12 | – | – |
| 6.00 | 6.48 | 6.11 | CCNC(=O)c1cccc(-c2ccc3oc(-c4ccc(F)cc4)c(C(=O)NC)c3c2)c1 | – | – |
| – | – | – | C=C[C@@H]1C[C@]1(NC(=O)[C@@H]1C[C@@H](Oc2ncc(OC)c3ccc(Cl)cc23)CN1C(=O)[C@@H](NC(=O)OC(C)(C)C)C(C)(C)C)C(=O)NS(=O)(=O)C1CC1 | – | Activity (Hepatitis C virus [7]): Active; Activity (Hepatitis C virus [8]): Active |
| 7.44 | 8.44 | 8.23 | CNC(=O)c1c(-c2ccc(F)cc2)oc2ccc(-c3cccc(C(=O)NC4(c5ccccc5)CC4)c3)cc12 | – | – |
| < 4.70 | 4.92 | 5.96 | CNC(=O)c1c(-c2ccc(F)cc2)oc2ccc(-c3cccc(C(=O)O)c3)cc12 | – | – |
| 6.22 | 7.27 | 7.59 | CNC(=O)c1c(-c2ccc(F)cc2)oc2ccc(-c3cccc(C(=O)NC(C)c4ccccc4)c3)cc12 (configuration not stated) | – | – |
| – | – | < 4.30 | CNC(=O)c1c(-c2ccc(F)cc2)oc2ccc(-c3cccc(CO)c3)cc12 | – | – |
| – | – | < 4.30 | CNC(=O)c1c(-c2ccc(F)cc2)oc2ccc(-c3cccc(C(=O)OC)c3)cc12 | – | – |
| < 4.70 | 5.35 | 6.19 | CNC(=O)c1c(-c2ccc(F)cc2)oc2ccc(-c3ccc(C(=O)O)cc3)cc12 | – | – |
| – | 6.01 | 5.44 | CNC(=O)c1c(-c2ccc(F)cc2)oc2ccc(-c3ccc(C(=O)NC(C)(C)C)cc3)cc12 | – | – |
| – | – | 5.08 | O=C(Nc1c(OCc2ccc(Cl)cc2)cccc1C(=O)O)c1ccccc1 | – | EC50 (Hepatitis C virus [1]): Not Active; EC50 (Hepatitis C virus [2]): Not Active |
| – | – | 6.44 | CNC(=O)c1c(-c2ccc(F)cc2)oc2ccc(-c3ccc(C(=O)O)s3)cc12 | – | – |
| 6.80 | 8.00 | 8.10 | CNC(=O)c1c(-c2ccc(F)cc2)oc2ccc(-c3cccc(C(=O)NC(C)(C)c4ccccc4)c3)cc12 | – | – |

| SMILES | pEC50 (Hepatitis C virus [1]) | pEC50 (Hepatitis C virus [2]) | pIC50 [3] | pEC50 [4] | also measured |
| --- | --- | --- | --- | --- | --- |
| CNC(=O)c1c(-c2ccc(F)cc2)oc2ccc(-c3cc(C(=O)NC4(c5ccccc5)CC4)ccc3Cl)cc12 | 8.21 | 8.60 | – | 7.20 | – |
| CNC(=O)c1c(-c2ccc(F)cc2)oc2ccc(-c3cc(C(=O)NC4(c5cccnc5)CC4)ccc3C)cc12 | 7.77 | 8.66 | – | 6.71 | pIC50 (Cytochrome P450 3A4): 7.20; remaining at 10 min [5]: 0.6%; remaining at 10 min [6]: 0.7%; pIC50 (Cytochrome P450 2C8): 6.46 |
| CNC(=O)c1c(-c2ccc(F)cc2)oc2ccc(-c3cc(C(=O)NC4(c5cnccn5)CC4)ccc3C)cc12 | 7.82 | 8.59 | – | 6.51 | – |
| CNC(=O)c1c(-c2ccc(F)cc2)oc2ccc(-c3cc(C(=O)NC4(c5ccccc5)CC4)ccc3OC)cc12 | 8.10 | 8.74 | – | 7.49 | – |
| CNC(=O)c1c(-c2ccc(F)cc2)oc2ccc(-c3cc(C(=O)NC4(c5nc(C)no5)CC4)ccc3C)cc12 | 8.92 | 9.09 | – | 7.34 | half-life [9]: 10 min; half-life [10]: 25 min |
| CNC(=O)c1c(-c2ccc(F)cc2)oc2ccc(-c3cc(C(=O)NC4(c5ccccc5)CC4)ccc3F)cc12 | 7.80 | 8.44 | – | 6.82 | – |
| CNC(=O)c1c(-c2ccc(F)cc2)oc2ccc(-c3cc(C(=O)NC4(c5cccnn5)CC4)ccc3C)cc12 | 7.77 | 8.54 | – | 6.86 | – |
| CNC(=O)c1c(-c2ccc(F)cc2)oc2ccc(-c3cc(C(=O)NC4(c5ccncc5)CC4)ccc3C)cc12 | 8.08 | 9.08 | – | 7.20 | pIC50 (Cytochrome P450 3A4): 7.14; remaining at 10 min [5]: 11%; remaining at 10 min [6]: 11%; pIC50 (Cytochrome P450 2C8): 7.59 |
| CNC(=O)c1c(-c2ccc(F)cc2)oc2ccc(-c3cc(C(=O)NC4(c5ccccc5)CC4)ccc3C)cc12 | 8.68 | 8.89 | – | 7.46 | CC50 at 72 h [11]: > 25000 nM; pIC50 (Cytochrome P450 3A4): 5.68; half-life [12]: 11 min; remaining at 10 min [5]: 39%; remaining at 10 min [6]: 68%; pIC50 (Cytochrome P450 2C8): 5.82 |
| CNC(=O)c1c(-c2ccc(F)cc2)oc2ccc(-c3cc(C(=O)NC4(c5ccncn5)CC4)ccc3C)cc12 | 7.89 | 8.72 | – | 6.96 | – |

Source: ChEMBL document CHEMBL4014311, “Discovery of a Hepatitis C Virus NS5B Replicase Palm Site Allosteric Inhibitor (BMS-929075) Advanced to Phase 1 Clinical Studies” (J Med Chem, 2017)
